Measurements: ChEMBL document CHEMBL2311326, “Synthesis and evaluation of novel sulfenamides as novel anti Methicillin-resistant Staphylococcus aureus agents” (2013)
In brackets after ≈: the same amount, converted by molar mass.

Key:
Assay type in all cases: functional
Staphylococcus aureus [1] = assay: Antimicrobial activity against methicillin-resistant Staphylococcus aureus isolate 309-4
Staphylococcus aureus [2] = assay: Antimicrobial activity against methicillin-resistant Staphylococcus aureus isolate 309-7
Staphylococcus aureus [3] = assay: Antimicrobial activity against methicillin-sensitive Staphylococcus aureus isolate 309-1
Staphylococcus aureus [4] = assay: Antimicrobial activity against methicillin-resistant Staphylococcus aureus isolate 6-42
Staphylococcus aureus [5] = assay: Antimicrobial activity against methicillin-resistant Staphylococcus aureus isolate 309-8
Staphylococcus aureus [6] = assay: Antimicrobial activity against methicillin-resistant Staphylococcus aureus isolate Chaoyang
Staphylococcus aureus [7] = assay: Antimicrobial activity against Staphylococcus aureus ATCC 6538
Bacillus subtilis = assay: Antimicrobial activity against Bacillus subtilis ATCC 6633
Pseudomonas aeruginosa = assay: Antimicrobial activity against Pseudomonas aeruginosa PAO1
Staphylococcus aureus [8] = assay: Antimicrobial activity against methicillin-resistant Staphylococcus aureus

SMILES | MBC (Staphylococcus aureus [1]) [mg/L] | MIC (Staphylococcus aureus [1]) [mg/L] | MBC (Staphylococcus aureus [2]) [mg/L] | MIC (Staphylococcus aureus [2]) [mg/L] | MBC (Staphylococcus aureus [3]) [mg/L] | MIC (Staphylococcus aureus [3]) [mg/L] | MBC (Staphylococcus aureus [4]) [mg/L] | MIC (Staphylococcus aureus [4]) [mg/L] | MBC (Staphylococcus aureus [5]) [mg/L] | MIC (Staphylococcus aureus [5]) [mg/L] | MBC (Staphylococcus aureus [6]) [mg/L] | MIC (Staphylococcus aureus [6]) [mg/L] | MBC (Staphylococcus aureus [7]) [mg/L] | MIC (Staphylococcus aureus [7]) [mg/L] | MIC (Bacillus subtilis) [mg/L] | MIC (Pseudomonas aeruginosa) [mg/L] | MIC (Staphylococcus aureus [8]) [mg/L]
CCOC(=O)[C@@H](N)Cc1c[nH]c2ccccc12 | > 100 | > 100 | > 100 | > 100 | > 100 | > 100 | > 100 | > 100 | > 100 | > 100 | > 100 | > 100 | > 100 | > 100 |  |  | 
COC(=O)CC[C@H](N)C(=O)OC | > 100 | > 100 | > 100 | > 100 | > 100 | > 100 | > 100 | > 100 | > 100 | > 100 | > 100 | > 100 | > 100 | > 100 |  |  | 
COC(=O)[C@H](Cc1c[nH]c2ccccc12)NSc1ccccc1[N+](=O)[O-] | > 100 | 25 (≈ 67.3 µM) | > 100 | 12.5 (≈ 33.7 µM) | > 100 | 25 (≈ 67.3 µM) | > 100 | 3.13 (≈ 8.43 µM) | > 100 | 25 (≈ 67.3 µM) | > 100 | 3.13 (≈ 8.43 µM) | > 100 | 6.25 (≈ 16.8 µM) | 12.5 (≈ 33.7 µM) | > 100 | 3.13 (≈ 8.43 µM)
O=C1C(=O)N(Sc2ccccc2[N+](=O)[O-])c2c(Br)cc(Br)cc21 |  |  |  |  |  |  |  |  |  |  |  |  |  |  | > 100 | > 100 | 25 (≈ 54.6 µM)
O=C1C(=O)N(Sc2ccccc2[N+](=O)[O-])c2c(Cl)cccc21 | > 100 | 12.5 (≈ 37.3 µM) | > 100 | 6.25 (≈ 18.7 µM) | > 100 | 12.5 (≈ 37.3 µM) | > 100 | 6.25 (≈ 18.7 µM) | > 100 | 12.5 (≈ 37.3 µM) | > 100 | 6.25 (≈ 18.7 µM) | > 100 | 12.5 (≈ 37.3 µM) | > 100 | > 100 | 6.25 (≈ 18.7 µM)
CCOC(=O)[C@H](Cc1c[nH]c2ccccc12)NSc1ccc([N+](=O)[O-])cc1[N+](=O)[O-] |  |  |  |  |  |  |  |  |  |  |  |  |  |  | 25 (≈ 58.1 µM) | > 100 | > 100
O=C1C(=O)N(Sc2ccccc2[N+](=O)[O-])c2ccccc21 |  |  |  |  |  |  |  |  |  |  |  |  |  |  | > 100 | > 100 | 25 (≈ 83.3 µM)
COC(=O)CC[C@H](NSc1ccccc1[N+](=O)[O-])C(=O)OC |  |  |  |  |  |  |  |  |  |  |  |  |  |  | 25 (≈ 76.1 µM) | > 100 | 12.5 (≈ 38.1 µM)
Cc1ccc(SN2C(=O)C(=O)c3ccccc32)cc1 |  |  |  |  |  |  |  |  |  |  |  |  |  |  | > 100 | > 100 | > 100
COC(=O)[C@H](Cc1c[nH]c2ccccc12)NSc1ccc([N+](=O)[O-])cc1[N+](=O)[O-] |  |  |  |  |  |  |  |  |  |  |  |  |  |  | 25 (≈ 60 µM) | > 100 | > 100
O=C1C(=O)N(Sc2ccc([N+](=O)[O-])cc2[N+](=O)[O-])c2ccccc21 |  |  |  |  |  |  |  |  |  |  |  |  |  |  | > 100 | > 100 | > 100
CN[C@H](CC(C)C)C(=O)N[C@H]1C(=O)N[C@@H](CC(N)=O)C(=O)N[C@H]2C(=O)N[C@H]3C(=O)N[C@H](C(=O)N[C@H](C(=O)O)c4cc(O)cc(O)c4-c4cc3ccc4O)[C@H](O)c3ccc(c(Cl)c3)Oc3cc2cc(c3O[C@@H]2O[C@H](CO)[C@@H](O)[C@H](O)[C@H]2O[C@H]2C[C@](C)(N)[C@H](O)[C@H](C)O2)Oc2ccc(cc2Cl)[C@H]1O [VANCOMYCIN] | 1 (≈ 0.69 µM) |  | 1 (≈ 0.69 µM) |  | 1 (≈ 0.69 µM) |  | 1 (≈ 0.69 µM) |  | 1 (≈ 0.69 µM) |  | 1 (≈ 0.69 µM) |  | 2 (≈ 1.38 µM) |  | 0.5 (≈ 0.345 µM) | > 100 | 
CC(C)OC(=O)[C@H](Cc1c[nH]c2ccccc12)NSc1ccccc1[N+](=O)[O-] | > 100 | 25 (≈ 62.6 µM) | > 100 | 6.25 (≈ 15.6 µM) | > 100 | 25 (≈ 62.6 µM) | > 100 | 3.13 (≈ 7.84 µM) | > 100 | 6.25 (≈ 15.6 µM) | > 100 | 3.13 (≈ 7.84 µM) | > 100 | 6.25 (≈ 15.6 µM) | 12.5 (≈ 31.3 µM) | > 100 | 3.13 (≈ 7.84 µM)
Cc1ccc(SN[C@@H](Cc2c[nH]c3ccccc23)C(=O)OC(C)C)cc1 |  |  |  |  |  |  |  |  |  |  |  |  |  |  | 25 (≈ 67.8 µM) | > 100 | > 100
O=[N+]([O-])c1ccc(S)cc1 | > 100 | 1.56 (≈ 10.1 µM) | > 100 | 1.56 (≈ 10.1 µM) | > 100 | 1.56 (≈ 10.1 µM) | > 100 | 1.56 (≈ 10.1 µM) | > 100 | 1.56 (≈ 10.1 µM) | > 100 | 1.56 (≈ 10.1 µM) | > 100 | 3.13 (≈ 20.2 µM) |  |  | 
COC(=O)c1ccccc1SN1C(=O)C(=O)c2cccc(Cl)c21 |  |  |  |  |  |  |  |  |  |  |  |  |  |  | > 100 | > 100 | 12.5 (≈ 35.9 µM)
COC(=O)CC[C@H](NSc1ccc([N+](=O)[O-])cc1)C(=O)OC | > 100 | 6.25 (≈ 19 µM) | > 100 | 3.13 (≈ 9.53 µM) | > 100 | 6.25 (≈ 19 µM) | > 100 | 1.56 (≈ 4.75 µM) | > 100 | 3.13 (≈ 9.53 µM) | > 100 | 1.56 (≈ 4.75 µM) | > 100 | 6.25 (≈ 19 µM) | 3.13 (≈ 9.53 µM) | > 100 | 1.56 (≈ 4.75 µM)

SMILES | MBC (Staphylococcus aureus [1]) [mg/L] | MIC (Staphylococcus aureus [1]) [mg/L] | MBC (Staphylococcus aureus [2]) [mg/L] | MIC (Staphylococcus aureus [2]) [mg/L] | MBC (Staphylococcus aureus [3]) [mg/L] | MIC (Staphylococcus aureus [3]) [mg/L] | MBC (Staphylococcus aureus [4]) [mg/L] | MIC (Staphylococcus aureus [4]) [mg/L] | MBC (Staphylococcus aureus [5]) [mg/L] | MIC (Staphylococcus aureus [5]) [mg/L] | MBC (Staphylococcus aureus [6]) [mg/L] | MIC (Staphylococcus aureus [6]) [mg/L] | MBC (Staphylococcus aureus [7]) [mg/L] | MIC (Staphylococcus aureus [7]) [mg/L] | MIC (Bacillus subtilis) [mg/L] | MIC (Pseudomonas aeruginosa) [mg/L] | MIC (Staphylococcus aureus [8]) [mg/L]
CCOC(=O)[C@H](Cc1c[nH]c2ccccc12)NSc1ccccc1[N+](=O)[O-] | > 100 | 12.5 (≈ 32.4 µM) | > 100 | 6.25 (≈ 16.2 µM) | > 100 | 12.5 (≈ 32.4 µM) | > 100 | 1.56 (≈ 4.05 µM) | > 100 | 6.25 (≈ 16.2 µM) | > 100 | 1.56 (≈ 4.05 µM) | > 100 | 6.25 (≈ 16.2 µM) | 6.25 (≈ 16.2 µM) | > 100 | 1.56 (≈ 4.05 µM)
COC(=O)c1ccccc1SN1C(=O)C(=O)c2ccccc21 |  |  |  |  |  |  |  |  |  |  |  |  |  |  | > 100 | > 100 | 50 (≈ 160 µM)
CCOC(=O)c1ccccc1SN1C(=O)C(=O)c2ccccc21 |  |  |  |  |  |  |  |  |  |  |  |  |  |  | > 100 | > 100 | 12.5 (≈ 38.2 µM)
CCOC(=O)CC[C@H](NSc1ccccc1[N+](=O)[O-])C(=O)OCC |  |  |  |  |  |  |  |  |  |  |  |  |  |  | 25 (≈ 70.1 µM) | > 100 | 25 (≈ 70.1 µM)
CCOC(=O)CC[C@H](NSc1ccc([N+](=O)[O-])cc1[N+](=O)[O-])C(=O)OCC |  |  |  |  |  |  |  |  |  |  |  |  |  |  | 50 (≈ 125 µM) | > 100 | > 100
CCOC(=O)c1ccccc1SN1C(=O)C(=O)c2cccc(Br)c21 |  |  |  |  |  |  |  |  |  |  |  |  |  |  | > 100 | > 100 | > 100
COC(=O)CC[C@H](NSc1ccc([N+](=O)[O-])cc1[N+](=O)[O-])C(=O)OC |  |  |  |  |  |  |  |  |  |  |  |  |  |  | 50 (≈ 134 µM) | > 100 | > 100
O=C1C(=O)N(Sc2ccccc2[N+](=O)[O-])c2c(Br)cccc21 |  |  |  |  |  |  |  |  |  |  |  |  |  |  | > 100 | > 100 | 12.5 (≈ 33 µM)
CCOC(=O)c1ccccc1SN1C(=O)C(=O)c2cc(Br)cc(Br)c21 |  |  |  |  |  |  |  |  |  |  |  |  |  |  | > 100 | > 100 | 25 (≈ 51.5 µM)
CCOC(=O)c1ccccc1SN1C(=O)C(=O)c2cccc(Cl)c21 |  |  |  |  |  |  |  |  |  |  |  |  |  |  | > 100 | > 100 | > 100
O=C1C(=O)N(Sc2ccccc2)c2ccccc21 |  |  |  |  |  |  |  |  |  |  |  |  |  |  | 25 (≈ 97.9 µM) | > 100 | 50 (≈ 196 µM)
CC(C)OC(=O)CC[C@H](NSc1ccc([N+](=O)[O-])cc1[N+](=O)[O-])C(=O)OC(C)C |  |  |  |  |  |  |  |  |  |  |  |  |  |  | 25 (≈ 58.2 µM) | > 100 | > 100
COC(=O)[C@H](Cc1c[nH]c2ccccc12)NSc1ccc([N+](=O)[O-])cc1 |  |  |  |  |  |  |  |  |  |  |  |  |  |  | 25 (≈ 67.3 µM) | > 100 | > 100
CCOC(=O)[C@H](Cc1c[nH]c2ccccc12)NSc1ccccc1 |  |  |  |  |  |  |  |  |  |  |  |  |  |  | 25 (≈ 73.4 µM) | > 100 | 25 (≈ 73.4 µM)
COC(=O)[C@H](Cc1c[nH]c2ccccc12)NSc1ccccc1 |  |  |  |  |  |  |  |  |  |  |  |  |  |  | 25 (≈ 76.6 µM) | > 100 | 50 (≈ 153 µM)
CCOC(=O)[C@H](Cc1c[nH]c2ccccc12)NSc1ccc(C)cc1 |  |  |  |  |  |  |  |  |  |  |  |  |  |  | 25 (≈ 70.5 µM) | > 100 | > 100
